# Measured values from PubChem BioAssay AID2060512 (Molecular Pharmacology Branch, DTP, NCI, 2025).
# System: 186277-243-T-J2-PDC complex spheroid viability
# Assay: Anticancer human tumor 186277-243-T-J2-PDC patient-derived colon adenocarcinoma cell line growth inhibition [GQUAD]
# Conditions: for IC50: curve of first compound; for viability, T/C: stronger effect = lower value
# Method in brief: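 Viability of tumor cells grown as complex spheroids with endothelial and stromal cells, exposed to drug combinations. Top concentration at or near clinical Cmax (else 10 microM), diluted in half-log increments.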
# [1] = second compound 0.0316 µM, first compound 0.0316 µM
# [2] = second compound 0.0316 µM, first compound 0.1 µM
# [3] = second compound 0.0316 µM, first compound 0.316 µM
# [4] = second compound 0.0316 µM, first compound 1 µM
# [5] = second compound 0.0316 µM, first compound 3.16 µM
# [6] = second compound 0.0316 µM, first compound 10 µM
# [7] = second compound 0.1 µM, first compound 0.0316 µM
# [8] = second compound 0.1 µM, first compound 0.1 µM
# [9] = second compound 0.1 µM, first compound 0.316 µM
# [10] = second compound 0.1 µM, first compound 1 µM
# [11] = second compound 0.1 µM, first compound 3.16 µM
# [12] = second compound 0.1 µM, first compound 10 µM
# [13] = second compound 0.316 µM, first compound 0.0316 µM
# [14] = second compound 0.316 µM, first compound 0.1 µM
# [15] = second compound 0.316 µM, first compound 0.316 µM
# [16] = second compound 0.316 µM, first compound 1 µM
# [17] = second compound 0.316 µM, first compound 3.16 µM
# [18] = second compound 0.316 µM, first compound 10 µM
# [19] = second compound 1 µM, first compound 0.0316 µM
# [20] = second compound 1 µM, first compound 0.1 µM
# [21] = second compound 1 µM, first compound 0.316 µM
# [22] = second compound 1 µM, first compound 1 µM
# [23] = second compound 1 µM, first compound 3.16 µM
# [24] = second compound 1 µM, first compound 10 µM
# [25] = second compound 3.16 µM, first compound 0.0316 µM
# [26] = second compound 3.16 µM, first compound 0.1 µM
# [27] = second compound 3.16 µM, first compound 0.316 µM
# [28] = second compound 3.16 µM, first compound 1 µM
# [29] = second compound 3.16 µM, first compound 3.16 µM
# [30] = second compound 3.16 µM, first compound 10 µM
# [31] = second compound 10 µM, first compound 0.0316 µM
# [32] = second compound 10 µM, first compound 0.1 µM
# [33] = second compound 10 µM, first compound 0.316 µM
# [34] = second compound 10 µM, first compound 1 µM
# [35] = second compound 10 µM, first compound 3.16 µM
# [36] = second compound 10 µM, first compound 10 µM
# 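For viability, T/C in this document: 100% = DMSO vehicle control viability.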
structure (smiles),measurement,setting,value
C=CCn1c(=O)c2cnc(Nc3ccc(N4CCN(C)CC4)cc3)nc2n1-c1cccc(C(C)(C)O)n1 + CN(C)c1ccc(Nc2c3ccc(NC(=O)CCN4CCCC4)cc3nc3cc(NC(=O)CCN4CCCC4)ccc23)cc1,IC50,second compound 0.0316 µM,174 nM
same,IC50,second compound 0.1 µM,175 nM
same,IC50,second compound 0.316 µM,200 nM
same,IC50,second compound 1 µM,189 nM
same,IC50,second compound 3.16 µM,179 nM
same,IC50,second compound 10 µM,184 nM
same,"viability, T/C",[1],107%
same,"viability, T/C",[2],81.7%
same,"viability, T/C",[3],15.5%
same,"viability, T/C",[4],10.1%
same,"viability, T/C",[5],9.78%
same,"viability, T/C",[6],13%
same,"viability, T/C",[7],106%
same,"viability, T/C",[8],83.8%
same,"viability, T/C",[9],14.5%
same,"viability, T/C",[10],8.74%
same,"viability, T/C",[11],8.46%
same,"viability, T/C",[12],11.9%
same,"viability, T/C",[13],96.8%
same,"viability, T/C",[14],94.4%
same,"viability, T/C",[15],20.9%
same,"viability, T/C",[16],8.7%
same,"viability, T/C",[17],9.7%
same,"viability, T/C",[18],12.2%
same,"viability, T/C",[19],93.1%
same,"viability, T/C",[20],99.1%
same,"viability, T/C",[21],13%
same,"viability, T/C",[22],9.53%
same,"viability, T/C",[23],9.39%
same,"viability, T/C",[24],12.5%
same,"viability, T/C",[25],110%
same,"viability, T/C",[26],85.3%
same,"viability, T/C",[27],15.4%
same,"viability, T/C",[28],10.1%
same,"viability, T/C",[29],9.74%
same,"viability, T/C",[30],14.9%
same,"viability, T/C",[31],101%
same,"viability, T/C",[32],88.6%
same,"viability, T/C",[33],16%
same,"viability, T/C",[34],10.1%
same,"viability, T/C",[35],8.2%
same,"viability, T/C",[36],12.7%
CC(C)(O)C1CCC(Nc2ccc3ncc(-c4cccc(C(F)(F)F)c4)n3n2)CC1 (stereo unspecified) + CN(C)c1ccc(Nc2c3ccc(NC(=O)CCN4CCCC4)cc3nc3cc(NC(=O)CCN4CCCC4)ccc23)cc1,IC50,second compound 0.0316 µM,2700 nM
same,IC50,second compound 0.1 µM,4050 nM
same,IC50,second compound 0.316 µM,2780 nM
same,IC50,second compound 1 µM,5190 nM
same,IC50,second compound 3.16 µM,2890 nM
same,IC50,second compound 10 µM,3530 nM
same,"viability, T/C",[1],103%
same,"viability, T/C",[2],84.8%
same,"viability, T/C",[3],113%
same,"viability, T/C",[4],92.4%
same,"viability, T/C",[5],42.7%
same,"viability, T/C",[6],44%
same,"viability, T/C",[7],98.8%
same,"viability, T/C",[8],89.1%
same,"viability, T/C",[9],91.4%
same,"viability, T/C",[10],92.1%
same,"viability, T/C",[11],51.6%
same,"viability, T/C",[12],44.1%
same,"viability, T/C",[13],107%
same,"viability, T/C",[14],92.7%
same,"viability, T/C",[15],108%
same,"viability, T/C",[16],92.3%
same,"viability, T/C",[17],44.9%
same,"viability, T/C",[18],36%
same,"viability, T/C",[19],93.1%
same,"viability, T/C",[20],99.5%
same,"viability, T/C",[21],85.7%
same,"viability, T/C",[22],92%
same,"viability, T/C",[23],56.2%
same,"viability, T/C",[24],41.7%
same,"viability, T/C",[25],93.1%
same,"viability, T/C",[26],93.5%
same,"viability, T/C",[27],108%
same,"viability, T/C",[28],81.6%
same,"viability, T/C",[29],48.2%
same,"viability, T/C",[30],27.6%
same,"viability, T/C",[31],133%
same,"viability, T/C",[32],107%
same,"viability, T/C",[33],96.7%
same,"viability, T/C",[34],98.2%
same,"viability, T/C",[35],41.4%
same,"viability, T/C",[36],22.8%
COc1ncnc(C2CC2)c1-c1ncc2cnn(Cc3ccc(-c4nc(C(F)(F)F)cn4C(C)C)cc3)c2n1 + CN(C)c1ccc(Nc2c3ccc(NC(=O)CCN4CCCC4)cc3nc3cc(NC(=O)CCN4CCCC4)ccc23)cc1,IC50,second compound 0.0316 µM,> 10000 nM
same,IC50,second compound 0.1 µM,> 10000 nM
same,IC50,second compound 0.316 µM,> 10000 nM
same,IC50,second compound 1 µM,> 10000 nM
same,IC50,second compound 3.16 µM,> 10000 nM
same,IC50,second compound 10 µM,> 10000 nM
same,"viability, T/C",[1],106%
same,"viability, T/C",[2],102%
same,"viability, T/C",[3],101%
same,"viability, T/C",[4],101%
same,"viability, T/C",[5],106%
same,"viability, T/C",[6],98.1%
same,"viability, T/C",[7],102%
same,"viability, T/C",[8],93.2%
same,"viability, T/C",[9],105%
same,"viability, T/C",[10],94.8%
same,"viability, T/C",[11],99%
same,"viability, T/C",[12],98.2%
same,"viability, T/C",[13],92.8%
same,"viability, T/C",[14],110%
same,"viability, T/C",[15],105%
same,"viability, T/C",[16],98.7%
same,"viability, T/C",[17],103%
same,"viability, T/C",[18],85.6%
same,"viability, T/C",[19],100%
same,"viability, T/C",[20],114%
same,"viability, T/C",[21],101%
same,"viability, T/C",[22],107%
same,"viability, T/C",[23],112%
same,"viability, T/C",[24],84.3%
same,"viability, T/C",[25],99.1%
same,"viability, T/C",[26],98%
same,"viability, T/C",[27],113%
same,"viability, T/C",[28],108%
same,"viability, T/C",[29],118%
same,"viability, T/C",[30],95%
same,"viability, T/C",[31],111%
same,"viability, T/C",[32],116%
same,"viability, T/C",[33],106%
same,"viability, T/C",[34],99.2%
same,"viability, T/C",[35],105%
same,"viability, T/C",[36],53.8%
